# Read-outs that look alike come from different tables or passages of the source.
# Columns and labels:
# S. aureus ATCC 25923 [1] = assay: Antibacterial activity, pre-exposure (planktonic cells and biofilm formation); type: cell-based, Staphylococcus aureus; conditions: for MIC / inhibition at 5 µM / inhibition at 10 µM / inhibition at 15 µM / inhibition at 25 µM: Staphylococcus aureus, ATCC25923; for inhibition at 5 µM / inhibition at 10 µM / inhibition at 15 µM / inhibition at 25 µM / Average inhibition %, biofilms viability / Average inhibition %, planktonic cells viability: pre-exposure, ± SD
# Procedure: (§1) The antimicrobial activity was assessed in a similar way for the initial screening and the dose–response evaluation against different bacterial strains. With the exception of the post-exposure experiment, the compounds were added to the wells along with the bacteria to test the ability of compounds to prevent bacterial growth and biofilm formation (pre-exposure). The compounds were diluted in DMSO and plated directly in 96-well plates before adding the bacterial culture, and plates were incubated for 18 h under aerobic conditions at 37 °C with shaking (220 rpm). The antibacterial activity of the compounds was assessed on planktonic cells and biofilms separately using two different measurements for each: optical density (turbidity) and resazurin reduction (viability) on planktonic cells and resazurin followed by a crystal violet staining assay (total biomass) on biofilms, as described in the following sections.
# (§2) The resazurin staining was performed according to the protocol previously optimized with a few modifications.[46] Briefly, the planktonic solution was first transferred into a new 96-well plate and the OD of the planktonic solution was measured using a Varioskan LUX Multimode microplate reader (Thermo Scientific, Vantaa, Finland). Then, 10 μL of a 400 μM resazurin (R7017, Sigma-Aldrich, St. Louis, MO) diluted in phosphate-buffered saline (PBS) (Thermo Fisher Scientific, MA) was added to the wells (for a final resazurin concentration of 20 μM). The plate was incubated in the dark with shaking (220 rpm) for about 3–10 min at room temperature with S. aureus and A. baumannii (until the bacteria controls turned pink) or for 20 min at 37 °C with P. aeruginosa. Fluorescence was measured at λex = 560 nm and λem = 590 nm using the top optics of the Varioskan LUX Multimode microplate reader. The planktonic plate was then discarded. The original challenge plate containing the biofilms was washed once with PBS, and 200 μL of a 20 μM resazurin solution was added to the wells. The plate was incubated in the dark at 37 °C with shaking (220 rpm) for 30 min with S. aureus, 60 min with A. baumannii, and 90 min with P. aeruginosa. Fluorescence was measured as described for the planktonic solution. The biofilms were next treated with crystal violet staining.
# (§3) After removing the resazurin solution from the plate, biofilms were fixed with ethanol 100% for 15 min at room temperature. Ethanol was then removed, and the biofilms were left to air-dry completely at RT. Crystal violet, diluted to 1:100 in deionized water from the 2.3% commercial solution (HT90132, Sigma-Aldrich, St. Louis, MO), was added to the wells and, after a 5 min incubation with the dye, the biofilms were washed twice with deionized water and left to air-dry for about 10 min. The dye was solubilized in ethanol 100% for 1 h, and absorbance was measured at 595 nm using a Multiskan Sky microplate spectrophotometer (Thermo Scientific, Vantaa, Finland).
# P. aeruginosa ATCC 9027 = assay: Antibacterial activity, pre-exposure; type: cell-based, Pseudomonas aeruginosa; conditions: for Average inhibition %, biofilms viability / Average inhibition %, planktonic cells viability / inhibition at 50 µM / inhibition at 100 µM / inhibition at 150 µM / inhibition at 200 µM: P. aeruginosa ATCC 9027, pre-exposure, ± SD; for inhibition at 50 µM / inhibition at 100 µM / inhibition at 150 µM / inhibition at 200 µM: Pseudomonas aeruginosa, ATCC9027
# Procedure: as §1, §2, §3
# S. aureus ATCC 25923 [2] = assay: Antibacterial activity, post-exposure on preformed 18-h-old biofilms; type: cell-based, Staphylococcus aureus; conditions: ± SD; for inhibition at 25 µM / inhibition at 50 µM / inhibition at 100 µM / inhibition at 200 µM: Staphylococcus aureus; for inhibition at 25 µM: ATCC25923, 25 µM; for inhibition at 50 µM: ATCC25923, 50 µM; for inhibition at 100 µM: ATCC25923, 100 µM; for inhibition at 200 µM: ATCC25923, 200 µM
# Procedure: For the post-exposure experiment, bacteria were grown with no compounds in the same conditions for 18 h, after which the media was changed, and compounds were added on the preformed biofilms. The plates were then incubated in the same conditions for an additional 24 h before proceeding to the staining assays.
# as §2, §3
# A. baumannii NCTC 13423 = assay: Antibacterial activity, pre-exposure; type: cell-based, Acinetobacter baumannii; conditions: for Average inhibition %, biofilms viability / Average inhibition %, planktonic cells viability / inhibition at 10 µM / inhibition at 15 µM / inhibition at 25 µM / inhibition at 50 µM: A. baumannii NCTC 13423, pre-exposure, ± SD; for inhibition at 10 µM / inhibition at 15 µM / inhibition at 25 µM / inhibition at 50 µM: Acinetobacter baumannii, NCTC13423
# Procedure: as §1, §2, §3
# [3] = 10 µM, read-out: Average inhibition %, biofilms biomass
# [4] = 10 µM, read-out: Average inhibition %, planktonic cells turbidity
# [5] = 15 µM, read-out: Average inhibition %, biofilms biomass
# [6] = 15 µM, read-out: Average inhibition %, planktonic cells turbidity
# [7] = 25 µM, read-out: Average inhibition %, biofilms biomass
# [8] = 25 µM, read-out: Average inhibition %, planktonic cells turbidity
# [9] = 50 µM, read-out: Average inhibition %, biofilms biomass
# [10] = 50 µM, read-out: Average inhibition %, planktonic cells turbidity
# [11] = read-out: Average inhibition %, biofilms biomass
# [12] = read-out: Average inhibition %, planktonic cells turbidity
smiles,measurement,setting,value
"CCCCCCCCCCc1ccc2nc(CCC(N)(CO)CO)ccc2c1 [Compound 81, 2-Amino-2-[2-(6-decylquinolin-2-yl)ethyl]propane-1,3-diol]",MIC,"S. aureus ATCC 25923 [1]; lowest concentration with no visible growth (>90% inhibition of turbidity and viability of planktonic cells), 18 h, read-out: MIC S. aureus ATCC 25923",10 to 15 µM
same,inhibition at 5 µM,"S. aureus ATCC 25923 [1]; 5 µM, read-out: Average inhibition %, biofilms biomass",28.1 ± 33.9%
same,inhibition at 5 µM,"S. aureus ATCC 25923 [1]; 5 µM, read-out: Average inhibition %, planktonic cells turbidity",33.4 ± 30.9%
same,inhibition at 10 µM,S. aureus ATCC 25923 [1]; [3],66 ± 27.6%
same,inhibition at 10 µM,S. aureus ATCC 25923 [1]; [4],57.3 ± 36.4%
same,inhibition at 15 µM,S. aureus ATCC 25923 [1]; [5],98.4 ± 0.3%
same,inhibition at 15 µM,S. aureus ATCC 25923 [1]; [6],99.3 ± 0.2%
same,inhibition at 25 µM,S. aureus ATCC 25923 [1]; [7],97.3 ± 0.1%
same,inhibition at 25 µM,S. aureus ATCC 25923 [1]; [8],98.6 ± 0.3%
same,MIC,S. aureus ATCC 25923 [1]; read-out: MIC (S. aureus),10 to 15 µM
same,"Average inhibition %, biofilms viability",S. aureus ATCC 25923 [1]; 5 µM,28.3 ± 16.5%
same,"Average inhibition %, planktonic cells viability",S. aureus ATCC 25923 [1]; 5 µM,23.5 ± 26.1%
same,"Average inhibition %, biofilms viability",S. aureus ATCC 25923 [1]; 10 µM,64 ± 29.7%
same,"Average inhibition %, planktonic cells viability",S. aureus ATCC 25923 [1]; 10 µM,33.9 ± 57%
same,"Average inhibition %, biofilms viability",S. aureus ATCC 25923 [1]; 15 µM,99.1 ± 1%
same,"Average inhibition %, planktonic cells viability",S. aureus ATCC 25923 [1]; 15 µM,99.7 ± 0%
same,"Average inhibition %, biofilms viability",S. aureus ATCC 25923 [1]; 25 µM,99.1 ± 1.4%
same,"Average inhibition %, planktonic cells viability",S. aureus ATCC 25923 [1]; 25 µM,99.7 ± 0.1%
same,"Average inhibition %, biofilms viability",P. aeruginosa ATCC 9027; 50 µM,4.9 ± 5.2%
same,"Average inhibition %, planktonic cells viability",P. aeruginosa ATCC 9027; 50 µM,10.9 ± 9.5%
same,"Average inhibition %, biofilms viability",P. aeruginosa ATCC 9027; 100 µM,3.8 ± 4.9%
same,"Average inhibition %, planktonic cells viability",P. aeruginosa ATCC 9027; 100 µM,20.3 ± 12.9%
same,"Average inhibition %, biofilms viability",P. aeruginosa ATCC 9027; 150 µM,7.9 ± 11.7%
same,"Average inhibition %, planktonic cells viability",P. aeruginosa ATCC 9027; 150 µM,16.3 ± 5.7%
same,"Average inhibition %, biofilms viability",P. aeruginosa ATCC 9027; 200 µM,0.3 ± 0.5%
same,"Average inhibition %, planktonic cells viability",P. aeruginosa ATCC 9027; 200 µM,17 ± 16.2%
same,inhibition at 50 µM,P. aeruginosa ATCC 9027; [9],3.6 ± 4.6%
same,inhibition at 50 µM,P. aeruginosa ATCC 9027; [10],29.2 ± 5.8%
same,inhibition at 100 µM,"P. aeruginosa ATCC 9027; 100 µM, read-out: Average inhibition %, biofilms biomass",0%
same,inhibition at 100 µM,"P. aeruginosa ATCC 9027; 100 µM, read-out: Average inhibition %, planktonic cells turbidity",41.2 ± 11.2%
same,inhibition at 150 µM,"P. aeruginosa ATCC 9027; 150 µM, read-out: Average inhibition %, biofilms biomass",4 ± 7%
same,inhibition at 150 µM,"P. aeruginosa ATCC 9027; 150 µM, read-out: Average inhibition %, planktonic cells turbidity",38.2 ± 12.2%
same,inhibition at 200 µM,"P. aeruginosa ATCC 9027; 200 µM, read-out: Average inhibition %, biofilms biomass",0.7 ± 0.6%
same,inhibition at 200 µM,"P. aeruginosa ATCC 9027; 200 µM, read-out: Average inhibition %, planktonic cells turbidity",30.5 ± 8.3%
same,MIC P. aeruginosa ATCC 9027,"P. aeruginosa ATCC 9027; pre-exposure, Inactive = no activity up to 200 μM, > = some inhibition but no MIC reached",Inactive
same,"Average inhibition %, biofilms viability",S. aureus ATCC 25923 [2]; 25 µM,6.4 ± 8.2%
same,"Average inhibition %, planktonic cells viability",S. aureus ATCC 25923 [2]; 25 µM,8.8 ± 7.7%
same,"Average inhibition %, biofilms viability",S. aureus ATCC 25923 [2]; 50 µM,18.3 ± 16.6%
same,"Average inhibition %, planktonic cells viability",S. aureus ATCC 25923 [2]; 50 µM,6.9 ± 10.4%
same,"Average inhibition %, biofilms viability",S. aureus ATCC 25923 [2]; 100 µM,20.9 ± 18.1%
same,"Average inhibition %, planktonic cells viability",S. aureus ATCC 25923 [2]; 100 µM,28.8 ± 17.2%
same,"Average inhibition %, biofilms viability",S. aureus ATCC 25923 [2]; 200 µM,20.1 ± 16%
same,"Average inhibition %, planktonic cells viability",S. aureus ATCC 25923 [2]; 200 µM,7.8 ± 11.1%
same,inhibition at 25 µM,S. aureus ATCC 25923 [2]; [11],9.7 ± 8.6%
same,inhibition at 25 µM,S. aureus ATCC 25923 [2]; [12],22.7 ± 32.9%
same,inhibition at 50 µM,S. aureus ATCC 25923 [2]; [11],28.5 ± 12.5%
same,inhibition at 50 µM,S. aureus ATCC 25923 [2]; [12],10 ± 17.4%
same,inhibition at 100 µM,S. aureus ATCC 25923 [2]; [11],34.6 ± 8.2%
same,inhibition at 100 µM,S. aureus ATCC 25923 [2]; [12],19 ± 22.4%
same,inhibition at 200 µM,S. aureus ATCC 25923 [2]; [11],25 ± 11.6%
same,inhibition at 200 µM,S. aureus ATCC 25923 [2]; [12],11.2 ± 16.9%
same,"Average inhibition %, biofilms viability",A. baumannii NCTC 13423; 10 µM,0 ± 0%
same,"Average inhibition %, planktonic cells viability",A. baumannii NCTC 13423; 10 µM,7.5 ± 7.6%
same,"Average inhibition %, biofilms viability",A. baumannii NCTC 13423; 15 µM,0 ± 0%
same,"Average inhibition %, planktonic cells viability",A. baumannii NCTC 13423; 15 µM,5.8 ± 6.2%
same,"Average inhibition %, biofilms viability",A. baumannii NCTC 13423; 25 µM,0 ± 0%
same,"Average inhibition %, planktonic cells viability",A. baumannii NCTC 13423; 25 µM,2.6 ± 2.1%
same,"Average inhibition %, biofilms viability",A. baumannii NCTC 13423; 50 µM,0.8 ± 1.4%
same,"Average inhibition %, planktonic cells viability",A. baumannii NCTC 13423; 50 µM,2.6 ± 3.8%
same,inhibition at 10 µM,A. baumannii NCTC 13423; [3],0%
same,inhibition at 10 µM,A. baumannii NCTC 13423; [4],0.2 ± 0.5%
same,inhibition at 15 µM,A. baumannii NCTC 13423; [5],2.1 ± 3.6%
same,inhibition at 15 µM,A. baumannii NCTC 13423; [6],0%
same,inhibition at 25 µM,A. baumannii NCTC 13423; [7],3.6 ± 6.2%
same,inhibition at 25 µM,A. baumannii NCTC 13423; [8],0%
same,inhibition at 50 µM,A. baumannii NCTC 13423; [9],5.6 ± 5.9%
same,inhibition at 50 µM,A. baumannii NCTC 13423; [10],0.5 ± 0.9%
same,MIC A. baumannii NCTC 13423,"A. baumannii NCTC 13423; pre-exposure, Inactive = no activity up to 50 μM, > = some inhibition but no MIC reached",Inactive
